Experimental data reported in publication PMC4456216 (Nature structural & molecular biology, 2015).

What was measured:
CBP KIX domain = assay: Isothermal titration calorimetry; parameters: species or system mouse; conditions: read-out: Dissociation constant (KD), CBP KIX, ITC, 25°C, 10 mM MES pH 6.5, 50 mM NaCl, CBP KIX titrated into TAD, KD from a representative experiment with standard error for fit to one-site binding model (n = 2 or 3), nd = no detectable binding under experimental conditions
CRY1 CC peptide = assay: Isothermal titration calorimetry; parameters: species or system mouse; conditions: read-out: Dissociation constant (KD), CRY1 CC, ITC, 25°C, 10 mM MES pH 6.5, 50 mM NaCl, CRY1 CC titrated into TAD, KD from a representative experiment with standard error for fit to one-site binding model (n = 2 or 3), nd = no detectable binding under experimental conditions

Kd (CBP KIX domain): 4.44 ± 0.23 µM | Kd (CRY1 CC peptide): 19.7 ± 2.57 µM
Substance: BMAL1 619X: BMAL1 TAD truncation mutant that removed the C-terminal seven residues
